How the values were obtained:
[1] = system: barnyardgrass; assay: Test B flooded paddy test; assay type: in vivo, Echinochloa crus-galli; details: 1000 g ai/ha, visual rating, scale 0 to 100 (0 no effect, 100 complete control), 13 to 15 days
Procedure, shortened: (§1)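 Treated at 2-leaf (paddy) or 1–4-leaf, 2–18 cm (postemergence); greenhouse 13–15 d; visual score vs control, 0 none to 100 complete control; dash = not tested.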

[2] = system: lambsquarters; assay: Test B pre-/postemergence herbicide test; assay type: in vivo, Chenopodium album; details: for Lambsquarters plant response rating: postemergence, visual rating, scale 0 (no effect) to 100 (complete control)
Procedure, shortened: (§2)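 Seeds were planted and treated preemergence with compounds formulated in a non-phytotoxic solvent mixture containing surfactant, while plants at the 1- to 4-leaf stage (2 to 18 cm) received postemergence sprays. Flooded paddy plants were grown to the 2-leaf stage. After 13 to 15 days in a greenhouse, injury was visually rated 0–100 against untreated controls.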

[3] = system: velvetleaf; assay: Test A pre-/postemergence herbicide test; assay type: in vivo, Abutilon theophrasti
Procedure, shortened: (§3)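 Visual injury rating on a 0–100 scale (0 no effect, 100 complete control) versus untreated controls, about ten days after treatment in greenhouse. Pre: directed soil spray onto seeded sandy loam. Post: spray to runoff on plants 2–10 cm tall at one- to two-leaf stage.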

[4] = system: redroot pigweed; assay: Test A pre-/postemergence herbicide test; assay type: in vivo, Amaranthus retroflexus
Procedure, shortened: as §3

[5] = system: rice; assay: Test B pre-/postemergence herbicide test; assay type: in vivo, Oryza sativa; details: preemergence
Procedure, shortened: as §2

[6] = system: velvetleaf; assay: Test B pre-/postemergence herbicide test; assay type: in vivo, Abutilon theophrasti; details: for Velvetleaf plant response rating: postemergence, visual rating, scale 0 (no effect) to 100 (complete control)
Procedure, shortened: as §2

[7] = system: large crabgrass; assay: Test A pre-/postemergence herbicide test; assay type: in vivo, Digitaria sanguinalis
Procedure, shortened: as §3

[8] = system: ducksalad; assay: Test B flooded paddy test; assay type: in vivo, Heteranthera limosa; details: 1000 g ai/ha, visual rating, scale 0 to 100 (0 no effect, 100 complete control), 13 to 15 days
Procedure, shortened: as §1

[9] = system: giant foxtail; assay: Test B pre-/postemergence herbicide test; assay type: in vivo, Setaria faberi; details: for Foxtail, Giant plant response rating: postemergence, visual rating, scale 0 (no effect) to 100 (complete control)
Procedure, shortened: as §2

[10] = system: morningglory; assay: Test A pre-/postemergence herbicide test; assay type: in vivo, Ipomoea spp.
Procedure, shortened: as §3

[11] = system: blackgrass; assay: Test B postemergence herbicide test; assay type: in vivo, Alopecurus myosuroides; details: postemergence, visual rating, scale 0 (no effect) to 100 (complete control)
Procedure, shortened: as §1

[12] = system: pigweed; assay: Test B pre-/postemergence herbicide test; assay type: in vivo, Amaranthus retroflexus; details: for Pigweed plant response rating: postemergence, visual rating, scale 0 (no effect) to 100 (complete control)
Procedure, shortened: as §2

[13] = system: small flower umbrella sedge; assay: Test B flooded paddy test; assay type: in vivo, Cyperus difformis; details: 1000 g ai/ha, visual rating, scale 0 to 100 (0 no effect, 100 complete control), 13 to 15 days
Procedure, shortened: as §1

[14] = system: Surinam grass; assay: Test B pre-/postemergence herbicide test; assay type: in vivo, Urochloa decumbens; details: for Surinam Grass plant response rating: postemergence, visual rating, scale 0 (no effect) to 100 (complete control)
Procedure, shortened: as §2

[15] = system: giant foxtail; assay: Test A pre-/postemergence herbicide test; assay type: in vivo, Setaria faberi
Procedure, shortened: as §3

[16] = system: wheat; assay: Test B postemergence herbicide test; assay type: in vivo, Triticum aestivum; design: key to Wheat plant response rating: 0 = no effect, 100 = complete control; details: postemergence, visual rating, scale 0 (no effect) to 100 (complete control)
Procedure, shortened: (§4)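 Plants grow to 1- to 4-leaf stage (2–18 cm) for postemergence spraying, or to 2-leaf stage for the paddy test. Formulated compound is applied. Greenhouse holding lasts 13–15 days. Response is scored visually relative to controls, 0 no effect to 100 complete control; a dash means no result.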

[17] = system: barnyardgrass; assay: Test A pre-/postemergence herbicide test; assay type: in vivo, Echinochloa crus-galli
Procedure, shortened: as §3

[18] = system: wild oat; assay: Test B postemergence herbicide test; assay type: in vivo, Avena fatua; details: postemergence, visual rating, scale 0 (no effect) to 100 (complete control)
Procedure, shortened: as §4

[19] = system: barnyardgrass; assay: Test B pre-/postemergence herbicide test; assay type: in vivo, Echinochloa crus-galli; details: for Barnyardgrass plant response rating: postemergence, visual rating, scale 0 (no effect) to 100 (complete control)
Procedure, shortened: (§5)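 Herbicidal effect was judged by eye on a 0–100 scale after plants stood 13 to 15 days in the greenhouse following pre- or postemergence treatment with surfactant-containing formulations.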

[20] = system: rice; assay: Test B flooded paddy test; assay type: in vivo, Oryza sativa; details: 1000 g ai/ha, visual rating, scale 0 to 100 (0 no effect, 100 complete control), 13 to 15 days
Procedure, shortened: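 Visual ratings, 0 (no effect) to 100 (complete control), made versus controls after 13–15 d greenhouse. Paddy plants treated at 2-leaf stage; postemergence plants at 1- to 4-leaf stage, 2–18 cm tall.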

[21] = system: large crabgrass; assay: Test B pre-/postemergence herbicide test; assay type: in vivo, Digitaria sanguinalis; details: for Crabgrass, Large plant response rating: postemergence, visual rating, scale 0 (no effect) to 100 (complete control)
Procedure, shortened: as §2

[22] = system: corn; assay: Test B pre-/postemergence herbicide test; assay type: in vivo, Zea mays; details: for Corn plant response rating: postemergence, visual rating, scale 0 (no effect) to 100 (complete control)
Procedure, shortened: as §2

[23] = system: cocklebur; assay: Test B pre-/postemergence herbicide test; assay type: in vivo, Xanthium strumarium; details: for Cocklebur plant response rating: postemergence, visual rating, scale 0 (no effect) to 100 (complete control)
Procedure, shortened: as §5

[24] = system: morningglory; assay: Test B pre-/postemergence herbicide test; assay type: in vivo, Ipomoea coccinea; details: for Morningglory plant response rating: postemergence, visual rating, scale 0 (no effect) to 100 (complete control)
Procedure, shortened: as §5

[25] = 125 g ai/ha, 0 = no effect, 100 = complete control, preemergence
[26] = 500 g ai/ha, visual rating 0-100, 0 no effect, 100 complete control, preemergence
[27] = Postemergence, 500 g ai/ha, 0 to 100 scale, 0 no effect, 100 complete control
[28] = Postemergence, 2000 g ai/ha, 0 to 100 scale, 0 no effect, 100 complete control
[29] = Preemergence, 2000 g ai/ha, visual rating, 0 to 100 scale (0 no effect, 100 complete control)
[30] = preemergence, 500 g ai/ha, visual injury, 0 to 100 scale (0 no effect, 100 complete control)

CCOc1cccc(NC(=O)c2cn(C(C)(C)C)nc2C)c1 [Compound 190]
15: Plant response rating, Velvetleaf [3, 28] | Velvetleaf plant response rating [3, 29] | Plant response rating, Crabgrass, Large [7, 28]
50: Plant response rating, Lambsquarters [2, 26] | Morningglory plant response rating ([24]; 125 g ai/ha)
60: Ducksalad plant response rating [8] | Sedge, Umbrella plant response rating [13]
90: Plant response rating, Pigweed [12, 26] | Morningglory plant response rating ([24]; 500 g ai/ha)
85: Pigweed plant response rating [4, 29]
10: Pigweed plant response rating [4, 27] | Plant response rating, Velvetleaf [6, 26] | Crabgrass, Large plant response rating [7, 27] | Plant response rating, Foxtail, Giant [9, 26] | Foxtail, Giant plant response rating ([9]; 125 g ai/ha) | Foxtail, Giant plant response rating ([9]; 500 g ai/ha) | Morningglory plant response rating [10, 27] | Morningglory plant response rating [10, 30] | Plant response rating, Surinam Grass [14, 26] | Surinam Grass plant response rating ([14]; 125 g ai/ha) | Foxtail, Giant plant response rating [15, 29] | Oat, Wild plant response rating ([18]; 125 g ai/ha) | Barnyardgrass plant response rating ([19]; 500 g ai/ha) | Crabgrass, Large plant response rating ([21]; 125 g ai/ha) | Corn plant response rating ([22]; 125 g ai/ha) | Corn plant response rating ([22]; 500 g ai/ha) | Cocklebur plant response rating ([23]; 500 g ai/ha)
70: Crabgrass, Large plant response rating [7, 29] | Pigweed plant response rating ([12]; 500 g ai/ha)
0: Lambsquarters plant response rating (0 to 100 scale) [2, 25] | Velvetleaf plant response rating [3, 27] | Velvetleaf plant response rating [3, 30] | Rice plant response rating (0 to 100 scale) ([5]; 125 g ai/ha, 0 = no effect, 100 = complete control) | Velvetleaf plant response rating (0 to 100 scale) [6, 25] | Foxtail, Giant plant response rating (0 to 100 scale) [9, 25] | Blackgrass plant response rating ([11]; 125 g ai/ha) | Blackgrass plant response rating ([11]; 500 g ai/ha) | Surinam Grass plant response rating (0 to 100 scale) [14, 25] | Foxtail, Giant plant response rating [15, 27] | Plant response rating, Foxtail, Giant [15, 28] | Foxtail, Giant plant response rating [15, 30] | Wheat plant response rating ([16]; 125 g ai/ha) | Wheat plant response rating ([16]; 500 g ai/ha) | Barnyardgrass plant response rating [17, 27] | Plant response rating, Barnyardgrass [17, 28] | Barnyardgrass plant response rating (0 to 100 scale) [19, 25] | Barnyardgrass plant response rating ([19]; 125 g ai/ha) | Rice plant response rating [20] | Corn plant response rating (0 to 100 scale) [22, 25] | Plant response rating, Corn [22, 26] | Cocklebur plant response rating (0 to 100 scale) [23, 25] | Plant response rating, Cocklebur [23, 26] | Cocklebur plant response rating ([23]; 125 g ai/ha) | Morningglory plant response rating (0 to 100 scale) [24, 25] | Plant response rating, Morningglory [24, 26]
20: Barnyardgrass plant response rating [1] | Plant response rating, Pigweed [4, 28] | Velvetleaf plant response rating ([6]; 125 g ai/ha) | Surinam Grass plant response rating ([14]; 500 g ai/ha) | Barnyardgrass plant response rating [17, 30] | Oat, Wild plant response rating ([18]; 500 g ai/ha) | Crabgrass, Large plant response rating ([21]; 500 g ai/ha)
40: Velvetleaf plant response rating ([6]; 500 g ai/ha) | Crabgrass, Large plant response rating [7, 30] | Barnyardgrass plant response rating [17, 29]
25: Pigweed plant response rating [4, 30] | Plant response rating, Morningglory [10, 28] | Morningglory plant response rating [10, 29]
80: Lambsquarters plant response rating ([2]; 500 g ai/ha) | Plant response rating, Crabgrass, Large [21, 26]
30: Lambsquarters plant response rating ([2]; 125 g ai/ha) | Plant response rating, Rice ([5]; 500 g ai/ha, visual rating 0-100, 0 no effect, 100 complete control) | Pigweed plant response rating (0 to 100 scale) [12, 25] | Pigweed plant response rating ([12]; 125 g ai/ha) | Plant response rating, Barnyardgrass [19, 26] | Crabgrass, Large plant response rating (0 to 100 scale) [21, 25]
